Publication PMC7100484 (Pharmaceutical Research, 2020)

Columns and labels:
[1] = system: fibroblasts; details: cited from earlier work
[2] = microsomes; cited from earlier work
[3] = system: respiratory tract infections; details: in vivo; cited from earlier work
[4] = system: Herpes simplex virus 1; details: 250 mg/kg oral doses for 7 days; cited from earlier work
[5] = system: Mengo virus; details: mouse, in vivo; cited from earlier work
[6] = system: MCF7 Cells; assay: cells; format: cell-based; details: Homo sapiens, MCF7, read-out: IC50, inhibition of total fluorescent intensity/cell of Lysotracker Red
[7] = molecular target: Human Viral RNA Sensor RIG-I (Homo sapiens, UniProt O95786); assay: biochemical; format: binding
Sequence of Human Viral RNA Sensor RIG-I (O95786 whole entry): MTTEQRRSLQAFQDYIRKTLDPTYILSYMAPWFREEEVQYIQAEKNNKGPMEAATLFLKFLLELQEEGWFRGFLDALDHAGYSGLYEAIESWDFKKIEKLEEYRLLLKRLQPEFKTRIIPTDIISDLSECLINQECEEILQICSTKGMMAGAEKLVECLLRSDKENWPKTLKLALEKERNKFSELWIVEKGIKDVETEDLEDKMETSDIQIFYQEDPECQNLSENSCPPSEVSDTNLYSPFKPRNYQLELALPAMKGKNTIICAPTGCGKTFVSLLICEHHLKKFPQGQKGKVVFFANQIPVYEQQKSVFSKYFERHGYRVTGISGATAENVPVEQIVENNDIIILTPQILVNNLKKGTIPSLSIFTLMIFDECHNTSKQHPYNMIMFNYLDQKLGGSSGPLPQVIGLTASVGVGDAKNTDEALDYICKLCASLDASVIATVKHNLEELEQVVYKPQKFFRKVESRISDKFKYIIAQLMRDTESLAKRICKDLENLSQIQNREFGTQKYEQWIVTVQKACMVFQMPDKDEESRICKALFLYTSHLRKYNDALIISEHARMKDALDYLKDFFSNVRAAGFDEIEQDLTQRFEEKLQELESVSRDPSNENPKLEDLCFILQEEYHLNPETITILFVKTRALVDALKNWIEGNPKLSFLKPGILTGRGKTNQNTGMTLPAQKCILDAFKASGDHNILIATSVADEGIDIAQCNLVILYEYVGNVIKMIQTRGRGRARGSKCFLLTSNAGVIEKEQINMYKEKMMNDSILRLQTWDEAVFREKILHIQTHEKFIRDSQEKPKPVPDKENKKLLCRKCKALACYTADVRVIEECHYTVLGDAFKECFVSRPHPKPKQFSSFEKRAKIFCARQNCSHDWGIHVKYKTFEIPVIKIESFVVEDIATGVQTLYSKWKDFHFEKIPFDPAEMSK

[8] = system: ZIKV; assay: microbe, parasite or virus in culture; format: cell-based; details: Zika virus
[9] = system: Encephalomyocarditis virus (EMCV); details: mouse, in vivo; cited from earlier work
[10] = system: cytokines and chemokines; details: mouse, in vivo; cited from earlier work
[11] = system: mitochondrial potential; details: cited from earlier work
[12] = system: Influenza B; details: mouse, in vivo; cited from earlier work
[13] = system: macrophages; details: macrophages from naive BALB/c mice; cited from earlier work
[14] = system: EMCV; details: cited from earlier work
[15] = system: Semliki Forest; details: mouse, in vivo; cited from earlier work
[16] = system: West Nile virus; details: 10 mg/kg; cited from earlier work
[17] = not told; cited from earlier work
[18] = system: interferon; details: in vivo, po; cited from earlier work
[19] = system: Influenza A/Jap/305; details: mouse, in vivo; cited from earlier work

## CCN(CC)CCOc1ccc2c(c1)C(=O)c1cc(OCCN(CC)CC)ccc1-2 [Tilorone, 2,7-Bis[2-(diethylamino)ethoxy]-9H-fluoren-9-one]
[1]
  ATP-dependent acidification: inhibited the ATP-dependent acidification
  lysosomal pH: increase lysosomal pH
  secretion of precursor forms of lysosomal enzymes: enhanced the secretion of precursor forms of lysosomal enzymes
  storage of sulfated glycosaminoglycans: induce the storage of sulfated glycosaminoglycans
[2]
  species-liver microsome stability relationship: increased in the order of guinea pig, non-human primate, mouse, followed by human
[3]
  prophylactic efficacy: 72%
[4]
  survival in mice: 45% survival in mice at 250 mg/kg oral doses for 7 days
[5]
  survival in mice: 80% survival in mice at 250 mg/kg single oral dose
[6]
  IC50: ~4 µM
[7]
  EC50: 500 µM
[8]
  EC50: 5.2 µM
[9]
  survival in mice: 80% survival in mice at 250 mg/kg single oral dose
[10]
  levels of IL-6, IL-10, IL-12 (p40), IL-12 (p70), IL-17, Eotaxin, MCP-1, MIP-1B and RANTES: significantly higher levels
[11]
  mitochondrial potential: rapid increase
[12]
  survival in mice: 50% survival in mice at 250 mg/kg single oral dose
[13]
  in vivo secretion of IL-6, TNF-a and IL-12: increase in vivo secretion
[14]
  drop of virus titer: 1 log drop of virus titer at 25 mg/ml in vitro
[15]
  survival in mice: 100% survival in mice at 250 mg/kg single oral dose
[16]
  lethality protection: 46% lethality protection at 10 mg/kg
[17]
  permeability (in words): highly permeable
[18]
  interferon induction: inducer of interferon
[19]
  survival in mice: 30% survival in mice at 250 mg/kg single oral dose
